According to the supplement of paper PMC10331698:
± gives the standard deviation of the averaged measurements.

Key:
Experiment in all cases: level (log10 ratio to DMSO vehicle control); higher = higher biomarker level / cell amount than vehicle control
[1] = compound: O=S(=O)(Cl)C(F)(F)C(F)(F)C(F)(F)C(F)(F)C(F)(F)C(F)(F)C(F)(F)C(F)(F)F [Perfluoro-1-octanesulfonyl chloride]; conditions: in DMSO
Procedure: (§1)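 BioMAP Diversity Plus panel of 12 human primary cell co-culture systems (3C, 4H, LPS, SAg, BT, BF4T, BE3C, CASM3C, HDF3CGF, KF3CT, MyoF, Mphg). Compounds were added 1 h before stimulation and left for 24 h (MyoF 48 h; BT 72 h for soluble read-outs or 6 d for IgG). Biomarkers were read by ELISA, cytotoxicity by SRB, PBMC viability and proliferation by Alamar Blue. Each well value was divided by the mean of 8 DMSO control wells on the same plate and log10 transformed; duplicate blinded samples were tested at 4 concentrations.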

[2] = compound: O=C(O)C(F)(F)C(F)(F)C(F)(F)C(F)(F)C(F)(F)C(F)(F)C(F)(F)C(F)(F)C(F)(F)C(F)F [11-H-Perfluoroundecanoic acid]; conditions: in DMSO
Procedure: as §1

Hexafluoroamylene glycol = compound: OCC(F)(F)C(F)(F)C(F)(F)CO [Hexafluoroamylene glycol]; conditions: in DMSO
Procedure: as §1

[3] = compound: O=S(=O)(O)C(F)(F)C(F)(F)C(F)(F)C(F)(F)C(F)(F)C(F)(F)C(F)(F)C(F)(F)C(F)(F)C(F)(F)F [Sodium perfluorodecanesulfonate]; conditions: in DMSO
Procedure: as §1

[4] = compound: NS(=O)(=O)C(F)(F)C(F)(F)C(F)(F)C(F)(F)C(F)(F)C(F)(F)F [Perfluorohexanesulfonamide]; conditions: in DMSO
Procedure: as §1

[5] = compound: C=CC(=O)OCC(F)(F)C(F)(F)C(F)(F)COC(=O)C=C [1H,1H,5H,5H-Perfluoro-1,5-pentanediol diacrylate]; conditions: 6700 nM; in DMSO
Procedure: as §1

[6] = compound: FC(F)(F)C(F)(F)C(F)(F)C(F)(F)C(F)(F)C(F)(F)CC1CO1 [3-(Perfluorohexyl)-1,2-epoxypropane]; conditions: in DMSO
Procedure: as §1

[7] = compound: O=S(=O)(O)CCC(F)(F)C(F)(F)C(F)(F)C(F)(F)C(F)(F)C(F)(F)F [6:2 Fluorotelomer sulfonic acid]; conditions: in DMSO
Procedure: as §1

Nonafluoropentanamide = compound: NC(=O)C(F)(F)C(F)(F)C(F)(F)C(F)(F)F [Nonafluoropentanamide]; conditions: in DMSO
Procedure: as §1

[8] = compound: O=C(O)C=CC(F)(C(F)(F)F)C(F)(F)F [3-(Perfluoroisopropyl)-2-propenoic acid]; conditions: in DMSO
Procedure: as §1

Heptafluorobutyl iodide = compound: FC(F)(F)C(F)(F)C(F)(F)CI [Heptafluorobutyl iodide]; conditions: in DMSO
Procedure: as §1

Octafluoroadipamide = compound: NC(=O)C(F)(F)C(F)(F)C(F)(F)C(F)(F)C(N)=O [Octafluoroadipamide]; conditions: in DMSO
Procedure: as §1

[9] = compound: FC(F)(F)C(F)(F)C(F)(F)CC1CO1 [1H,1H-Heptafluorobutyl epoxide]; conditions: in DMSO
Procedure: as §1

[10] = compound: O=S(=O)(F)C(F)(F)C(F)(F)C(F)(F)C(F)(F)C(F)(F)C(F)(F)C(F)(F)C(F)(F)F [Perfluorooctanesulfonyl fluoride]; conditions: in DMSO
Procedure: as §1

[11] = compound: FC(F)(F)C(F)(F)C(F)(F)C(F)(F)C(F)(F)C(F)(F)C(F)(F)I [1-Iodopentadecafluoroheptane]; conditions: in DMSO
Procedure: as §1

[12] = compound: NC(=O)C(F)(F)C(F)(F)C(F)(F)C(F)F; conditions: in DMSO
Procedure: as §1

[13] = compound: COC(=O)C(F)(F)C(F)(F)OC(F)(C(F)(F)F)C(F)(F)OC(F)=C(F)F [Methyl perfluoro(3-(1-ethenyloxypropan-2-yloxy)propanoate)]; conditions: in DMSO
Procedure: as §1

[14] = compound: FC(F)(F)C(F)(F)CNCC(F)(F)C(F)(F)F [Bis(1H,1H-perfluoropropyl)amine]; conditions: in DMSO
Procedure: as §1

[15] = compound: C=C(C)C(=O)OCCC(F)(F)C(F)(F)C(F)(F)C(F)(F)C(F)(F)C(F)(F)F [6:2 Fluorotelomer methacrylate]; conditions: in DMSO
Procedure: as §1

## KF3CT:uPA
[1]; 6700 nM
  level (log10): 0.016 ± 0.017
[1]; 20000 nM
  level (log10): 0.0145 ± 0.025
[1]; 60000 nM
  level (log10): 0.0055 ± 0.00071
[2]; 6700 nM
  level (log10): -0.003
[2]; 20000 nM
  level (log10): 0.0055 ± 0.0092
Hexafluoroamylene glycol; 6700 nM
  level (log10): 0.004 ± 0.0057
Hexafluoroamylene glycol; 20000 nM
  level (log10): 0.006 ± 0.011
Hexafluoroamylene glycol; 60000 nM
  level (log10): -0.0065 ± 0.025
[3]; 1500 nM
  level (log10): -0.0325 ± 0.016
[3]; 4400 nM
  level (log10): 0.0025 ± 0.018
[3]; 13000 nM
  level (log10): -0.001 ± 0.037
[3]; 40000 nM
  level (log10): 0.0035 ± 0.0021
[4]; 6700 nM
  level (log10): -0.006 ± 0.023
[4]; 20000 nM
  level (log10): -0.0215 ± 0.019
[4]; 60000 nM
  level (log10): 0.0025 ± 0.022
[5]
  level (log10): -0.0035 ± 0.013
[6]; 6700 nM
  level (log10): 0.006 ± 0.011
[6]; 20000 nM
  level (log10): 0.001 ± 0.011
[6]; 60000 nM
  level (log10): -0.0015 ± 0.005
[7]; 6700 nM
  level (log10): 0.0015 ± 0.005
[7]; 20000 nM
  level (log10): -0.0115 ± 0.019
[7]; 60000 nM
  level (log10): 0.008 ± 0.03
Nonafluoropentanamide; 6700 nM
  level (log10): 0.0205 ± 0.011
Nonafluoropentanamide; 20000 nM
  level (log10): 0.019 ± 0.0042
Nonafluoropentanamide; 60000 nM
  level (log10): 0.011 ± 0.013
[8]; 6700 nM
  level (log10): 0.0095 ± 0.0064
[8]; 20000 nM
  level (log10): 0.0045 ± 0.0078
[8]; 60000 nM
  level (log10): 0.004 ± 0.02
Heptafluorobutyl iodide; 6700 nM
  level (log10): 0.003 ± 0.0014
Heptafluorobutyl iodide; 20000 nM
  level (log10): -0.0155 ± 0.011
Heptafluorobutyl iodide; 60000 nM
  level (log10): -0.014 ± 0.0028
Octafluoroadipamide; 6700 nM
  level (log10): -0.0015 ± 0.018
Octafluoroadipamide; 20000 nM
  level (log10): 0.0005 ± 0.0035
Octafluoroadipamide; 60000 nM
  level (log10): 0.0145 ± 0.018
[9]; 6700 nM
  level (log10): -0.0085 ± 0.047
[9]; 20000 nM
  level (log10): 0.017 ± 0.067
[9]; 60000 nM
  level (log10): -0.019 ± 0.033
[10]; 6700 nM
  level (log10): 0.006 ± 0.011
[10]; 20000 nM
  level (log10): 0.008 ± 0.016
[10]; 60000 nM
  level (log10): 0.011 ± 0.028
[11]; 6700 nM
  level (log10): -0.014 ± 0.013
[11]; 20000 nM
  level (log10): 0.0105 ± 0.044
[12]; 6700 nM
  level (log10): 0.008 ± 0.025
[12]; 20000 nM
  level (log10): -0.0125 ± 0.028
[12]; 60000 nM
  level (log10): -0.008 ± 0.021
[13]; 6700 nM
  level (log10): 0.014 ± 0.021
[13]; 20000 nM
  level (log10): 0.0325 ± 0.019
[14]; 6700 nM
  level (log10): 0.001 ± 0.013
[14]; 20000 nM
  level (log10): 0.0085 ± 0.0092
[14]; 60000 nM
  level (log10): 0.012 ± 0.013
[15]; 6700 nM
  level (log10): -0.016 ± 0.013
[15]; 20000 nM
  level (log10): -0.011 ± 0.023
[15]; 60000 nM
  level (log10): -0.0015 ± 0.0078

## BT:PBMC Cytotoxicity
[1]; 6700 nM
  level (log10): 0.0495 ± 0.016
[1]; 20000 nM
  level (log10): 0.055
[1]; 60000 nM
  level (log10): 0.114 ± 0.0021
[2]; 6700 nM
  level (log10): 0.0055 ± 0.0035
[2]; 20000 nM
  level (log10): 0.0375 ± 0.0064
Hexafluoroamylene glycol; 6700 nM
  level (log10): 0.008 ± 0.024
Hexafluoroamylene glycol; 20000 nM
  level (log10): 0.008 ± 0.0057
Hexafluoroamylene glycol; 60000 nM
  level (log10): -0.005 ± 0.0099
[3]; 1500 nM
  level (log10): -0.025 ± 0.023
[3]; 4400 nM
  level (log10): -0.005 ± 0.0042
[3]; 13000 nM
  level (log10): -0.0035 ± 0.026
[3]; 40000 nM
  level (log10): 0.007 ± 0.035
[4]; 6700 nM
  level (log10): 0.0405 ± 0.011
[4]; 20000 nM
  level (log10): 0.047 ± 0.027
[4]; 60000 nM
  level (log10): 0.0775 ± 0.011
[5]
  level (log10): -0.201 ± 0.0092
[6]; 6700 nM
  level (log10): -0.016 ± 0.0028
[6]; 20000 nM
  level (log10): -0.017 ± 0.025
[6]; 60000 nM
  level (log10): 0.0175 ± 0.016
[7]; 6700 nM
  level (log10): 0.007
[7]; 20000 nM
  level (log10): 0.0235 ± 0.0064
[7]; 60000 nM
  level (log10): 0.045 ± 0.0014
Nonafluoropentanamide; 6700 nM
  level (log10): 0.024 ± 0.0042
Nonafluoropentanamide; 20000 nM
  level (log10): 0.02 ± 0.0028
Nonafluoropentanamide; 60000 nM
  level (log10): 0.0155 ± 0.011
[8]; 6700 nM
  level (log10): -0.016 ± 0.0042
[8]; 20000 nM
  level (log10): 0.002 ± 0.0042
[8]; 60000 nM
  level (log10): 0.021 ± 0.0057
Heptafluorobutyl iodide; 6700 nM
  level (log10): 0.0515 ± 0.029
Heptafluorobutyl iodide; 20000 nM
  level (log10): 0.01 ± 0.0028
Heptafluorobutyl iodide; 60000 nM
  level (log10): 0.0125 ± 0.032
Octafluoroadipamide; 6700 nM
  level (log10): 0.0125 ± 0.0021
Octafluoroadipamide; 20000 nM
  level (log10): 0.018 ± 0.011
Octafluoroadipamide; 60000 nM
  level (log10): 0.005 ± 0.051
[9]; 6700 nM
  level (log10): 0.0175 ± 0.026
[9]; 20000 nM
  level (log10): -0.0025 ± 0.022
[9]; 60000 nM
  level (log10): 0.017 ± 0.013
[10]; 6700 nM
  level (log10): -0.001 ± 0.016
[10]; 20000 nM
  level (log10): -0.01 ± 0.041
[10]; 60000 nM
  level (log10): -0.005 ± 0.0071
[11]; 6700 nM
  level (log10): 0.014 ± 0.0057
[11]; 20000 nM
  level (log10): 0.0075 ± 0.049
[12]; 6700 nM
  level (log10): -0.001 ± 0.0042
[12]; 20000 nM
  level (log10): -0.0015 ± 0.0035
[12]; 60000 nM
  level (log10): 0.016
[13]; 6700 nM
  level (log10): 0.0195 ± 0.036
[13]; 20000 nM
  level (log10): 0.049 ± 0.058
[14]; 6700 nM
  level (log10): 0.007 ± 0.013
[14]; 20000 nM
  level (log10): 0.005 ± 0.024
[14]; 60000 nM
  level (log10): 0.0125 ± 0.013
[15]; 6700 nM
  level (log10): 0.0045 ± 0.021
[15]; 20000 nM
  level (log10): 0.018 ± 0.03
[15]; 60000 nM
  level (log10): 0.0285 ± 0.032
